In patent US20260217688A1, “INHIBITORS OF JAK2” (Llydaw Therapeutics, Inc., priority 2022, published 2026):

Experiments:
Ba/F3 (JAK2 V617F) cells = assay: Proliferation inhibition assay (CellTiter-Glo), Ba/F3 JAK2 V617F; format: cell-based; conditions: Mus musculus, BaF3; without IL3, 72 h; read-out: Ba/F3 JAK2 V617F, CC50 3 days
Method: (§1) Ba/F3 (JAK2 wt) (ABM, T3076) cells and Ba/F3 (JAK2 V617F) (WuXi AppTec) cells were grown in RPMI-1640 (Gibco, cat. number 21870) supplemented with 10% FBS (Hyclone Laboratories Inc, Cat #SV30160.03), 1× Antibiotic-antimycotic (Gibco, Cat #15240-062), 2× Sodium pyruvate (Paneco, cat #F023), 2× Essential amino acids (Paneco, cat #F115/100), 1× Non-Essential amino acids (Paneco, cat #F116) at 37° C. in 5% CO2 atmosphere.
(§2) For the proliferation inhibition assay Ba/F3 (JAK2 wt) and Ba/F3 (JAK2 V617F) cells were seeded into a CellBIND® 384-well Flat Clear Bottom Black Polystyrene Microplates (Corning, USA, Cat #3770) at a density of 4000 cells per well in complete culture medium with or without 10 ng/ml rmIL-3 (RD systems, USA, Cat #403-ML-025) using Biomek FX/NX (384) liquid handler, 45 μl of cell suspension in complete culture medium per well. 500× compound's stocks in DMSO (Sigma Cat #D2650) were prepared in compounds plate (Diamond Well Plate, Axigen, Cat #P-384-120 SQ-C-S) applying Biomek 2000. 1 μl of 500× compounds stock was added to 49 μl of complete culture medium into Dilution plate (Diamond Well Plate, Axigen, Cat #P-384-120 SQ-C-S), mixed and then 5 μl of 10× compounds solution was transferred to cells using Biomek FX/NX (384) liquid handler. The centrifugation at 100 g for 1 min at Eppendorf 5810 followed. Final DMSO concentration in assay was 0.2%. All treatments were performed in technical and biological duplicates. Treated cells were incubated for 72 h at 37° C. with 5% CO2.
(§3) After 3 days of incubation, CellTiter-Glo Luminescent Cell Viability Assay (Promega) was performed. 10 μl of CellTiter-Glo (Promega, CAT #G7572) was added to the cells using Biomek FX/NX (384) liquid handler. The assay plate was centrifuged at 100 g for 1 min and luminescence signal was measured using Microplate Reader (CLARIOStar).

[1] = as above; format: cell-based; conditions: mouse, Ba/F3 (JAK2 V617F) cells; with 10 ng/ml rmIL-3, 72 h; read-out: Ba/F3 JAK2 V617F + IL3, CC50 3 days
Method: as §1, §2, §3

JAK2 JH2 = target: T1, JAK2 JH2 (Homo sapiens, UniProt O60674); assay: JAK2 JH2 TR-FRET Assay; format: binding; conditions: JAK2 JH2 1 nM, Tracer ZE84-0003 10 nM
T1 construct: Enzyme: JAK2 JH2, His-Avi-Tag, Biotin-Labeled (BPS Bioscience, Cat #79074) 1 nM; His; purchased BPS Bioscience 79074
T1 sequence (O60674 545-809 limits assumed): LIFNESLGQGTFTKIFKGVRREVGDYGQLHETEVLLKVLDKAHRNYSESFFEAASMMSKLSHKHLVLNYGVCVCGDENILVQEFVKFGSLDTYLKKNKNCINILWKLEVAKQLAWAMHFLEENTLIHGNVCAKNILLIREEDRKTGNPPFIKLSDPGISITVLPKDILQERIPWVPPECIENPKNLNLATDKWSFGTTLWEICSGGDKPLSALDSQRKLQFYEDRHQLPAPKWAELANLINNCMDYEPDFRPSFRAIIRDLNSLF
Method: Assay Buffer 1×: • 20 mM HEPES pH 7.2-7.4; • 10 mM MgCl2; • 0.015% Brij-35; • 2 mM DTT; • 0.05 mg/ml BSA.
Final assay concentrations: • DMSO: 0.25%; • Streptavidin Tb-cryptate (Cisbio, Cat #610SATLB) 0.2 nM; • Enzyme: JAK2 JH2, His-Avi-Tag, Biotin-Labeled (BPS Bioscience, Cat #79074) 1 nM; • Probe: Tracer ZE84-0003 (ChemRar) 10 nM.
Materials: • Reaction plate: ProxiPlate-384 Plus White Plate (PerkinElmer); • Dilution plate: Diamond Well Plate (Axygen, Cat #P-384-120 SQ-C-S); • Compounds plate: Diamond Well Plate (Axygen, Cat #P-384-120 SQ-C-S).
Assay protocol: • 1. Prepare 400× solutions of compounds in DMSO into Compounds plate; • 2. Prepare Dilution plate: add 39 μL of 1× Assay buffer per well of Dilution plate; • 3. Prepare 2×Tb-cryptate mix in 1× Assay buffer. Add 10 μL of 2×Tb-cryptate mix to K-(Tb-cryptate and Probe without Enzyme) wells and blank (Tb-cryptate without Probe and Enzyme) wells; • 4. Add JAK2 JH2 into the rest of 2×Tb-cryptate mix to make 2×JAK2 JH2+Tb-cryptate mix. Add 10 μL per well into Reaction plate; • 5. Centrifuge plate at 200 g for 1 min; • 6. Dilute 1 μL of 400× compounds in 39 μL 1× Assay buffer in Dilution plate; • 7. Add 2 μL of 10× compounds from Dilution plate to Reaction plate with 10 μL of JAK2 JH2+Tb-cryptate mix; • 8. Centrifuge plate at 200 g for 1 min; • 9. Pre-incubate Reaction plate with compounds 15 min; • 10. Prepare 2.5× Tracer mix; • 11. Add 8 μL of 2.5× Tracer mix into appropriate wells of Reaction plate; • 12. Centrifuge plate at 800 g for 3 min; • 13. Incubate at rt for 15 min; • 14. Measure Fluorescence using Microplate Reader (Ex: TR, Em1/Em2: 482/520). The results of this assay are shown in the Table B. The values of EC50 shown as a letters A-D, where: A≤0.01 μM; 0.01 μM<B≤0.05 μM; 0.05 μM<C≤0.1 μM; D>0.1.

[2] = Proliferation inhibition assay (CellTiter-Glo), Ba/F3 JAK2 wt; format: cell-based; conditions: mouse, Ba/F3 (JAK2 wt) cells
Method: as §1, §2, §3

[3] = with 10 ng/ml rmIL-3, 72 h, read-out: Ba/F3 JAK2 wt + IL3, CC50 3 days
[4] = without IL3, 72 h, read-out: Ba/F3 JAK2 wt, CC50 3 days

Structure (SMILES) | CC50 (Ba/F3 (JAK2 V617F) cells) [nM] | CC50 at 72 h [1] [nM] | EC50 (JAK2 JH2) [nM] | CC50 at 72 h [2, 3] [nM] | CC50 at 72 h [2, 4] [nM]
COc1c(Nc2nc(Nc3cnn(C)c3)ncc2C(N)=O)cccc1-c1ncn(C)n1 [Compound 1, 4-((2-Methoxy-3-(1-methyl-1H-1,2,4-triazol-3-yl)phenyl)amino)-2-((1-methyl-1H-pyrazol-4-yl)amino)pyrimidine-5-carboxamide] | 1000 to 5000 | 5000 to 10000 | 10 to 50 | > 10000 | > 10000
COc1c(Nc2nc(Nc3cnn(C)c3)ncc2C(N)=O)cccc1-c1ccccn1 [Compound 2, 4-[2-methoxy-3-(2-pyridyl)anilino]-2-[(1-methylpyrazol-4-yl)amino]pyrimidine-5-carboxamide] | ≤ 500 | 1000 to 5000 | 50 to 100 | > 10000 | > 10000
COc1c(Nc2nc(Nc3cnn(C)c3)ncc2C(N)=O)cccc1-c1nnc(C)o1 [Compound 3, 4-[2-methoxy-3-(5-methyl-1,3,4-oxadiazol-2-yl)anilino]-2-[(1-methylpyrazol-4-yl)amino]pyrimidine-5-carboxamide] | 5000 to 10000 | > 10000 | 10 to 50 | > 10000 | > 10000
COc1c(Nc2nc(Nc3cnn(C(C)C)c3)ncc2C(N)=O)cccc1-c1ncn(C)n1 [Compound 4, 2-((1-Isopropyl-1H-pyrazol-4-yl)amino)-4-((2-methoxy-3-(1-methyl-1H-1,2,4-triazol-3-yl)phenyl)amino)pyrimidine-5-carboxamide] | ≤ 500 | 1000 to 5000 | ≤ 10 | 5000 to 10000 | 5000 to 10000
COc1c(Nc2nc(Nc3cnn(CCN(CC(C)C)CC(C)C)c3)ncc2C(N)=O)cccc1-c1ccccn1 [Compound 42, 2-[[1-[2-(diisobutylamino)ethyl]pyrazol-4-yl]amino]-4-[2-methoxy-3-(2-pyridyl)anilino]pyrimidine-5-carboxamide] | 1000 to 5000 |  | > 100 | 5000 to 10000 | 
COc1c(Nc2nc(Nc3cnn(C4CCOCC4)c3)ncc2C(N)=O)cccc1-c1nc2ccccc2o1 [Compound 44, 4-[3-(1,3-benzoxazol-2-yl)-2-methoxy-anilino]-2-[(1-tetrahydropyran-4-ylpyrazol-4-yl)amino]pyrimidine-5-carboxamide] | ≤ 500 |  | 10 to 50 | 1000 to 5000 | 
COc1c(Nc2nc(Nc3cnn(C4CCCCC4)c3)ncc2C(N)=O)cccc1-c1nc2ccccc2o1 [Compound 45, 4-[3-(1,3-benzoxazol-2-yl)-2-methoxy-anilino]-2-[(1-cyclohexylpyrazol-4-yl)amino]pyrimidine-5-carboxamide] | 500 to 1000 |  | > 100 | 5000 to 10000 | 
COc1c(Nc2nc(Nc3cnn(CCCN(C)C)c3)ncc2C(N)=O)cccc1-c1nc2ccccc2o1 [Compound 46, 4-[3-(1,3-benzoxazol-2-yl)-2-methoxy-anilino]-2-[[1-[3-(dimethylamino)propyl]pyrazol-4-yl]amino]pyrimidine-5-carboxamide] | ≤ 500 |  | 50 to 100 | 1000 to 5000 | 
COc1c(Nc2nc(Nc3cnn(C4CCN(C)CC4)c3)ncc2C(N)=O)cccc1-c1ccccn1 [Compound 47] | 1000 to 5000 |  | > 100 | 5000 to 10000 | 
COc1c(Nc2nc(Nc3cnn(C4CCN(C(C)C)CC4)c3)ncc2C(N)=O)cccc1-c1ccccn1 [Compound 48, 2-[[1-(1-isopropyl-4-piperidyl)pyrazol-4-yl]amino]-4-[2-methoxy-3-(2-pyridyl)anilino]pyrimidine-5-carboxamide] | ≤ 500 |  | 50 to 100 | 1000 to 5000 | 
COc1c(Nc2nc(Nc3cnn(C45CC6CC(CC(C6)C4)C5)c3)ncc2C(N)=O)cccc1-c1nc2ccccc2o1 [Compound 49, 2-[[1-(1-adamantyl)pyrazol-4-yl]amino]-4-[3-(1,3-benzoxazol-2-yl)-2-methoxy-anilino]pyrimidine-5-carboxamide] | 5000 to 10000 |  | > 100 | 5000 to 10000 | 
COCCn1cc(Nc2ncc(C(N)=O)c(Nc3cccc(-c4nc5ccccc5o4)c3OC)n2)cn1 [Compound 50] | ≤ 500 |  | 10 to 50 | > 10000 | 
COCCn1cc(Nc2ncc(C(N)=O)c(Nc3cccc(-c4ncn(C)n4)c3OC)n2)cn1 [Compound 51] | 1000 to 5000 |  | 10 to 50 | > 10000 | 
COCCCn1cc(Nc2ncc(C(N)=O)c(Nc3cccc(-c4nc5ccccc5o4)c3OC)n2)cn1 [Compound 52, 4-[3-(1,3-benzoxazol-2-yl)-2-methoxy-anilino]-2-[[1-(3-methoxypropyl)pyrazol-4-yl]amino]pyrimidine-5-carboxamide] | ≤ 500 |  | 10 to 50 | 1000 to 5000 | 
COCCCn1cc(Nc2ncc(C(N)=O)c(Nc3cccc(-c4ncn(CCCOC)n4)c3OC)n2)cn1 [Compound 53] | 1000 to 5000 |  | 10 to 50 | > 10000 | 
CCOCCn1cc(Nc2ncc(C(N)=O)c(Nc3cccc(-c4nc5ccccc5o4)c3OC)n2)cn1 [Compound 54] | ≤ 500 |  | 10 to 50 | 1000 to 5000 | 
CCOCCn1cc(Nc2ncc(C(N)=O)c(Nc3cccc(-c4ncn(C)n4)c3OC)n2)cn1 [Compound 55, 2-[[1-(2-ethoxyethyl)pyrazol-4-yl]amino]-4-[2-methoxy-3-(1-methyl-1,2,4-triazol-3-yl)anilino]pyrimidine-5-carboxamide] | 1000 to 5000 |  | 10 to 50 | > 10000 | 
COc1c(Nc2nc(Nc3cnn(CC(C)C)c3)ncc2C(N)=O)cccc1-c1nc2ccccc2o1 [Compound 56, 4-[3-(1,3-benzoxazol-2-yl)-2-methoxy-anilino]-2-[(1-isobutylpyrazol-4-yl)amino]pyrimidine-5-carboxamide] | 500 to 1000 |  | > 100 | 5000 to 10000 | 
COc1c(Nc2nc(Nc3cnn(CC(F)(F)F)c3)ncc2C(N)=O)cccc1-c1nc2ccccc2o1 [Compound 57, 4-[3-(1,3-benzoxazol-2-yl)-2-methoxy-anilino]-2-[[1-(2,2,2-trifluoroethyl)pyrazol-4-yl]amino]pyrimidine-5-carboxamide] | > 10000 |  | > 100 | > 10000 | 
